According to PubChem BioAssay (NCI):
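Grown in 96-well plates, cells were treated for 48 hours with each compound at five concentrations. Insufficient inhibition: endpoint recorded as highest concentration tested. TGI is the concentration that stops growth completely.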

Experiments:
Assay in all cases: inhibition of tumour cell growth, NCI panel, 48 h
OVCAR-3 ovarian = tested on: OVCAR-3 ovarian
PC-3 prostate = tested on: PC-3 prostate
M14 melanoma = tested on: M14 melanoma
NCI-H522 lung = tested on: NCI-H522 lung
TK-10 renal = tested on: TK-10 renal
T-47D breast = tested on: T-47D breast
HOP-62 NSCLC = tested on: HOP-62 NSCLC
NCI-H460 lung = tested on: NCI-H460 lung
CCRF-CEM leukemia = tested on: CCRF-CEM leukemia
SK-OV-3 ovarian = tested on: SK-OV-3 ovarian
UACC-257 melanoma = tested on: UACC-257 melanoma
OVCAR-5 ovarian = tested on: OVCAR-5 ovarian
MDA-MB-231 breast = tested on: MDA-MB-231 breast
NCI-H23 lung = tested on: NCI-H23 lung
CAKI-1 renal = tested on: CAKI-1 renal
SF-539 CNS = tested on: SF-539 CNS
RXF 393 renal = tested on: RXF 393 renal
MCF7 breast = tested on: MCF7 breast
HL-60(TB) leukemia = tested on: HL-60(TB) leukemia

Compound | TGI (OVCAR-3 ovarian) [µM] | TGI (PC-3 prostate) [µM] | TGI (M14 melanoma) [µM] | TGI (NCI-H522 lung) [µM] | TGI (TK-10 renal) [µM] | TGI (T-47D breast) [µM] | TGI (HOP-62 NSCLC) [µM] | TGI (NCI-H460 lung) [µM] | TGI (CCRF-CEM leukemia) [µM] | TGI (SK-OV-3 ovarian) [µM] | TGI (UACC-257 melanoma) [µM] | TGI (OVCAR-5 ovarian) [µM] | TGI (MDA-MB-231 breast) [µM] | TGI (NCI-H23 lung) [µM] | TGI (CAKI-1 renal) [µM] | TGI (SF-539 CNS) [µM] | TGI (RXF 393 renal) [µM] | TGI (MCF7 breast) [µM] | TGI (HL-60(TB) leukemia) [µM]
C/C(=N/NC(=S)Nc1ccc(Cl)cc1)c1cccc(/C(C)=N\NC(=S)Nc2ccc(Cl)cc2)n1 | 47.1 | > 100 | 8.53 | 27 | > 100 | > 100 | 45 | 56.4 | > 100 | > 100 | 46.8 | > 100 | 48.4 | > 100 | 39.4 | 10.6 | 27.1 | 9.25 | –
Nc1nc(Cl)c(N)c(NCC2(CO)CCCC2)n1 | > 100 | > 100 | – | > 100 | > 100 | 35.9 | > 100 | > 100 | > 100 | 24.2 | > 100 | > 100 | > 100 | – | > 100 | > 100 | > 100 | > 100 | > 100
Cc1c(O)c(OC2OC(CO)C(O)C(O)C2O)cc2c1CC[C@@H]1C2(C)C(=O)C[C@]2(C)[C@@H]([C@@](C)(O)C(=O)CCC(C)(C)O)[C@H](O)C[C@@]12C (some centres undefined) | > 100 | > 100 | > 100 | > 100 | > 100 | > 100 | > 100 | > 100 | > 100 | > 100 | > 100 | > 100 | > 100 | > 100 | > 100 | > 100 | > 100 | > 100 | –
CCOC(=O)C1(C/C=C/CBr)CCc2ccccc2C1=O (centres undefined) | – | 43 | 28.2 | 31.9 | 35.2 | 34.8 | 30.3 | – | > 100 | 33.1 | 34.8 | 70.2 | 56 | 39.8 | 28.8 | 36.2 | 18.4 | 33.5 | > 100
CCCCCC(=O)CCCCCCCC(O)CC(=O)OCC (centres undefined) | > 100 | > 100 | > 100 | > 100 | > 100 | > 100 | > 100 | > 100 | > 100 | – | > 100 | > 100 | > 100 | > 100 | > 100 | > 100 | – | > 100 | > 100
Cc1cc2c(cc1C)C(=O)C1(C2)Cc2c(C)ccc(C)c2C1=O (centres undefined) | > 100 | > 100 | > 100 | > 100 | > 100 | > 100 | – | > 100 | > 100 | – | > 100 | > 100 | > 100 | – | > 100 | > 100 | > 100 | > 100 | > 100
COc1ccc(-c2nc(-c3cc4c(ccc5ccccc54)oc3=O)cs2)cc1 | – | > 100 | > 100 | – | > 100 | > 100 | > 100 | > 100 | > 100 | > 100 | > 100 | > 100 | > 100 | – | > 100 | > 100 | > 100 | > 100 | > 100
